Assay results published in ChEMBL document CHEMBL3600303, “The N-Terminal T-T Motif of a Third-Generation HIV-1 Fusion Inhibitor Is Not Required for Binding Affinity and Antiviral Activity” (J Med Chem, 2015).
Calls of active or inactive are those of the source. The calls are words filed in the database; no cut-off is given here.

Assays:
[1] = system: Human immunodeficiency virus 1; test: Antiviral activity against HIV-1 SF162 pseudovirus infected in human TZM-bl cells assessed as inhibition of viral entry into cells after 48 hrs by single-cycle infection assay; type: functional, organism-based; details: Human immunodeficiency virus 1, SF162, TZM-bl
[2] = system: Human immunodeficiency virus 1; test: Antiviral activity against HIV-1 ZM214M.15 pseudovirus infected in human TZM-bl cells assessed as inhibition of viral entry into cells after 48 hrs by single-cycle infection assay; type: functional, organism-based; details: Human immunodeficiency virus 1, ZM214M.15, TZM-bl
[3] = system: Human immunodeficiency virus 1; test: Antiviral activity against ENF-resistant HIV1 NL4-3 harboring gp41 N-terminal heptad repeat D36S/V38M double mutant infected in human TZM-bl cells assessed as inhibition of viral entry into cells after 48 hrs by single-cycle infection assay; type: functional, organism-based
[4] = target: Envelope glycoprotein gp160 (Human immunodeficiency virus type 1 group M subtype B (isolate HXB2)(HIV-1)) (UniProt P04578); test: Binding affinity to HIV-1 HXB2 gp41 N-terminal heptad repeat assessed as thermostability of protein-compound complex at 10 uM after 30 mins by CD spectroscopic analysis; details: Human immunodeficiency virus 1
[5] = system: Human immunodeficiency virus 1; test: Antiviral activity against wild type HIV1 NL4-3 infected in human TZM-bl cells assessed as inhibition of viral replication after 2 days by luciferase reporter gene assay; type: functional, organism-based; details: Human immunodeficiency virus 1, NL4-3, TZM-bl, 48 h
[6] = system: Human immunodeficiency virus 1; test: Antiviral activity against HIV-1 pseudovirus harboring Q66R/N126K double mutant; type: functional, organism-based
[7] = Thermostability of the compound in PBS assessed as melting temperature at 20 uM by CD spectroscopic analysis; type: physicochemical; details: buffer
[8] = system: Human immunodeficiency virus 1; test: Ratio of IC50 for ENF-resistant HIV1 NL4-3 harboring gp41 N-terminal heptad repeat D36S/V38M double mutant to IC50 for wild type HIV1 NL4-3; type: functional
[9] = target: Envelope glycoprotein gp160 (Human immunodeficiency virus 1) (UniProt Q72502); test: Binding affinity to HIV1 NL4-3 gp41 N-terminal heptad repeat I37T mutant after 30 mins by CD spectroscopic analysis
[10] = system: Human immunodeficiency virus 1; test: Antiviral activity against ENF-resistant HIV1 NL4-3 harboring gp41 N-terminal heptad repeat D36G mutant infected in human TZM-bl cells assessed as inhibition of viral entry into cells after 48 hrs by single-cycle infection assay; type: functional, organism-based
[11] = system: Human immunodeficiency virus 1; test: Antiviral activity against ENF-resistant HIV1 NL4-3 harboring gp41 N-terminal heptad repeat I37T/N43K double mutant infected in human TZM-bl cells assessed as inhibition of viral entry into cells after 48 hrs by single-cycle infection assay; type: functional, organism-based
Serum = test: Metabolic stability in Sprague-Dawley rat serum at 4 mg/kg, ip measured at 0.5 to 2 hrs post dose; type: ADME, organism-based; details: in vivo
[12] = target: Envelope glycoprotein gp160 (Human immunodeficiency virus 1) (UniProt Q72502); test: Binding affinity to HIV1 NL4-3 gp41 N-terminal heptad repeat N43K mutant after 30 mins by CD spectroscopic analysis
[13] = target: Envelope glycoprotein gp160 (Human immunodeficiency virus 1) (UniProt Q72502); test: Binding affinity to HIV1 NL4-3 gp41 N-terminal heptad repeat I37T/N43K double mutant after 30 mins by CD spectroscopic analysis
[14] = system: Human immunodeficiency virus 1; test: Antiviral activity against ENF-resistant HIV1 NL4-3 harboring gp41 N-terminal heptad repeat V38A mutant infected in human TZM-bl cells assessed as inhibition of viral entry into cells after 48 hrs by single-cycle infection assay; type: functional, organism-based
[15] = system: Human immunodeficiency virus 1; test: Antiviral activity against ENF-resistant HIV1 NL4-3 harboring gp41 N-terminal heptad repeat I37T mutant infected in human TZM-bl cells assessed as inhibition of viral entry into cells after 48 hrs by single-cycle infection assay; type: functional, organism-based
[16] = system: Human immunodeficiency virus 1; test: Antiviral activity against HIV-1 SC42261.8 pseudovirus infected in human TZM-bl cells assessed as inhibition of viral entry into cells after 48 hrs by single-cycle infection assay; type: functional, organism-based; details: Human immunodeficiency virus 1, SC42261.8, TZM-bl
[17] = system: Human immunodeficiency virus 1; test: Ratio of IC50 for ENF-resistant HIV1 NL4-3 harboring gp41 N-terminal heptad repeat Q40H mutant to IC50 for wild type HIV1 NL4-3; type: functional
[18] = system: Human immunodeficiency virus 1; test: Antiviral activity against wild type HIV-1; type: functional, organism-based
[19] = target: Envelope glycoprotein gp160 (Human immunodeficiency virus type 1 group M subtype B (isolate HXB2)(HIV-1), UniProt P04578); test: Binding affinity to HIV-1 HXB2 gp41 N-terminal heptad repeat assessed as inhibition of 6-helix bundle formation after 30 mins by ELISA; set-up: species or system Human immunodeficiency virus 1
[20] = system: Human immunodeficiency virus 1; test: Antiviral activity against ENF-resistant HIV1 NL4-3 harboring gp41 N-terminal heptad repeat V38A/N42T double mutant infected in human TZM-bl cells assessed as inhibition of viral entry into cells after 48 hrs by single-cycle infection assay; type: functional, organism-based
[21] = system: Human immunodeficiency virus 1; test: Antiviral activity against ENF-resistant HIV1 NL4-3 harboring gp41 N-terminal heptad repeat Q40H mutant infected in human TZM-bl cells assessed as inhibition of viral entry into cells after 48 hrs by single-cycle infection assay; type: functional, organism-based
[22] = system: Human immunodeficiency virus 1; test: Ratio of IC50 for ENF-resistant HIV1 NL4-3 harboring gp41 N-terminal heptad repeat D36G mutant to IC50 for wild type HIV1 NL4-3; type: functional
[23] = system: Envelope glycoprotein gp160 (Human immunodeficiency virus 1), Q72502 [V38A]; test: Binding affinity to HIV1 NL4-3 gp41 N-terminal heptad repeat V38A mutant after 30 mins by CD spectroscopic analysis
[24] = target: Envelope glycoprotein gp160 (Human immunodeficiency virus 1) (UniProt Q72502); test: Binding affinity to HIV1 NL4-3 gp41 N-terminal heptad repeat V38A/N42T double mutant after 30 mins by CD spectroscopic analysis
[25] = system: Human immunodeficiency virus 1; test: Antiviral activity against ENF-resistant HIV1 NL4-3 harboring gp41 N-terminal heptad repeat V38M mutant infected in human TZM-bl cells assessed as inhibition of viral entry into cells after 48 hrs by single-cycle infection assay; type: functional, organism-based
[26] = system: Human immunodeficiency virus 1; test: Ratio of IC50 for ENF-resistant HIV1 NL4-3 harboring gp41 N-terminal heptad repeat V38A mutant to IC50 for wild type HIV1 NL4-3; type: functional
[27] = system: Human immunodeficiency virus 1; test: Ratio of IC50 for ENF-resistant HIV1 NL4-3 harboring gp41 N-terminal heptad repeat I37T/N43K double mutant to IC50 for wild type HIV1 NL4-3; type: functional
[28] = system: Human immunodeficiency virus 1; test: Ratio of IC50 for ENF-resistant HIV1 NL4-3 harboring gp41 N-terminal heptad repeat I37T mutant to IC50 for wild type HIV1 NL4-3; type: functional
[29] = target: Envelope glycoprotein gp160 (Human immunodeficiency virus 1) (UniProt Q72502); test: Binding affinity to HIV1 NL4-3 gp41 N-terminal heptad repeat Q40H mutant after 30 mins by CD spectroscopic analysis
[30] = system: Human immunodeficiency virus 1; test: Antiviral activity against HIV1 NL4-3 pseudovirus infected in human TZM-bl cells assessed as inhibition of viral entry into cells after 48 hrs by single-cycle infection assay; type: functional, organism-based; details: Human immunodeficiency virus 1, NL4-3, TZM-bl
[31] = system: Human immunodeficiency virus 1; test: Ratio of IC50 for ENF-resistant HIV1 NL4-3 harboring gp41 N-terminal heptad repeat V38A/N42T double mutant to IC50 for wild type HIV1 NL4-3; type: functional
[32] = system: Human immunodeficiency virus 1; test: Antiviral activity against wild type HIV1 NL4-3 infected in human TZM-bl cells assessed as inhibition of viral entry into cells after 48 hrs by single-cycle infection assay; type: functional, organism-based; details: Human immunodeficiency virus 1, NL4-3, TZM-bl
[33] = system: Human immunodeficiency virus 1; test: Ratio of IC50 for ENF-resistant HIV1 NL4-3 harboring gp41 N-terminal heptad repeat N43K mutant to IC50 for wild type HIV1 NL4-3; type: functional
[34] = target: Envelope glycoprotein gp160 (Human immunodeficiency virus 1) (UniProt Q72502); test: Binding affinity to HIV1 NL4-3 gp41 N-terminal heptad repeat G36D mutant after 30 mins by CD spectroscopic analysis
[35] = system: Human immunodeficiency virus 1; test: Ratio of IC50 for ENF-resistant HIV1 NL4-3 harboring gp41 N-terminal heptad repeat V38M mutant to IC50 for wild type HIV1 NL4-3; type: functional
[36] = system: Human immunodeficiency virus 1; test: Antiviral activity against ENF-resistant HIV1 NL4-3 harboring gp41 N-terminal heptad repeat N43K mutant infected in human TZM-bl cells assessed as inhibition of viral entry into cells after 48 hrs by single-cycle infection assay; type: functional, organism-based

Which results are given for `CC[C@H](C)[C@H](NC(=O)[C@H](C)NC(=O)[C@H](CCCNC(=N)N)NC(=O)[C@H](CC(=O)O)NC(=O)[C@H](Cc1c[nH]c2ccccc12)NC(=O)[C@H](C)NC(=O)[C@H](CCC(=O)O)NC(=O)[C@H](Cc1c[nH]c2ccccc12)NC(=O)[C@@H](NC(=O)[C@@H](N)[C@@H](C)O)[C@@H](C)O)C(=O)N[C@@H](C)C(=O)N[C@@H](CCC(=O)O)C(=O)N[C@@H](Cc1ccc(O)cc1)C(=O)N[C@@H](C)C(=O)N[C@@H](C)C(=O)N[C@@H](CCCNC(=N)N)C(=O)N[C@H](C(=O)N[C@@H](CCC(=O)O)C(=O)N[C@@H](C)C(=O)N[C@@H](CC(C)C)C(=O)N[C@H](C(=O)N[C@@H](CCCNC(=N)N)C(=O)N[C@@H](C)C(=O)N[C@@H](C)C(=O)N[C@@H](CCC(N)=O)C(=O)N[C@@H](CCC(=O)O)C(=O)N[C@@H](CCC(N)=O)C(=O)N[C@@H](CCC(N)=O)C(=O)N[C@@H](CCC(=O)O)C(=O)N[C@@H](CCCCN)C(=O)N[C@@H](CC(N)=O)C(=O)N[C@@H](CCC(=O)O)C(=O)N[C@@H](C)C(=O)N[C@@H](C)C(=O)N[C@@H](CC(C)C)C(=O)N[C@@H](CCCNC(=N)N)C(=O)N[C@@H](CCC(=O)O)C(=O)N[C@@H](CC(C)C)C(=O)O)[C@@H](C)CC)[C@@H](C)CC`?
IC50 [1]: 12.5 nM; IC50 [2]: 0.68 nM; IC50 [3]: 1.2 nM; Tm [4]: 82.2 °C; IC50 [5]: 0.52 nM; IC50 [6]: 8.36 nM; Tm [7]: 45.1 °C; Ratio IC50 [8]: 1.1; Activity [9]: Active; IC50 [10]: 1.7 nM; IC50 [11]: 1.7 nM; Stability (Serum): Stable; Activity [12]: Active; Activity [13]: Active; IC50 [14]: 1.3 nM; IC50 [15]: 1.8 nM; IC50 [16]: 2.64 nM; Ratio IC50 [17]: 1.3; IC50 [18]: 1.32 nM; IC50 [19]: 67.5 nM; IC50 [20]: 0.8 nM; IC50 [21]: 1.4 nM; Ratio IC50 [22]: 1.6; Activity [23]: Active; Activity [24]: Active; IC50 [25]: 1.8 nM; Ratio IC50 [26]: 1.2; Ratio IC50 [27]: 1.6; Ratio IC50 [28]: 1.6; Activity [29]: Active; IC50 [30]: 1.15 nM; Ratio IC50 [31]: 0.7; IC50 [32]: 1.1 nM; Ratio IC50 [33]: 1.9; Activity [34]: Active; Ratio IC50 [35]: 1.6; IC50 [36]: 2.1 nM
